Test results from the Deep4Chem optical property database.

Assay: solvent given as SMILES

Compound	absorption maximum (in CC#N) [nm]	absorption maximum (in CO) [nm]	absorption maximum (in ClCCl) [nm]	absorption maximum (in C1CCOC1) [nm]	other results
COc1c2ccccc2c(OC)c2c1c1ccc(F)cc1n2C	398	396	398		absorption maximum (in C1CCCCC1): 395 nm
O=C1C=CC2=Cc3ccccc3B(O)N12	360	364			absorption maximum (in CS(C)=O): 364 nm; absorption maximum (in ClC(Cl)Cl): 365 nm
Cc1ccc(OCc2cc(=O)oc3c2ccc2ccccc23)cc1		352	354	352	absorption maximum (in C1COCCO1): 352 nm; absorption maximum (in CCOC(C)=O): 351 nm; absorption maximum (in Cc1ccccc1): 354 nm
CCCCCCOc1cc(/C=C/c2cc(OCCCCCC)c(/C=C/c3cc(OCCCCCC)c(C=C(C#N)C#N)cc3OCCCCCC)cc2OCCCCCC)c(OCCCCCC)cc1C=C(C#N)C#N			518		
Cc1ccc(-c2cc(/C=C/c3ccc(N(c4ccccc4)c4ccccc4)cc3)c(C#N)c(N3CCCCC3)c2)cc1					absorption maximum (in CS(C)=O): 401 nm
Cc1cc(=O)oc2cc(O)ccc12					absorption maximum (in CCO): 323 nm
CCOc1ccc(/C=C/c2nc(N3CCOCC3)c3c([n+]2[O-])CCCC3)cc1			384		
c1ccc2c(c1)c1ccc3cccc4c3c1c2c1c2cccc3ccc5c6ccccc6c(c5c32)c41			625		
CC1(C)CC(NCc2ccc3ccc4cccc5ccc2c3c45)CC(C)(C)N1[O]	341	340			absorption maximum (in C1CCCCC1): 342 nm; absorption maximum (in ClC(Cl)Cl): 344 nm
c1ccc(-c2ccc(-c3ccc(-c4ccccc4)cc3)cc2)cc1				299	absorption maximum (in C1COCCO1): 310 nm
CN(C)c1ccc(/C=C/c2cccnn2)cc1	369		365	369	absorption maximum (in CS(C)=O): 380 nm
CC(C)(C)c1cc2ccc3cc(C(C)(C)C)cc4c3c2c(c1)c(=O)n1c4nc2c3ccccc3c3ccccc3c21	365	362		354	absorption maximum (in CC(C)=O): 365 nm; absorption maximum (in CCCCCC): 367 nm; absorption maximum (in CCO): 366 nm; absorption maximum (in CCOC(C)=O): 366 nm; absorption maximum (in CS(C)=O): 368 nm; absorption maximum (in Cc1ccc(C)cc1): 368 nm; absorption maximum (in ClC(Cl)(Cl)Cl): 369 nm; absorption maximum (in ClC(Cl)Cl): 368 nm; absorption maximum (in c1ccccc1): 369 nm
CCOC(=O)c1ccccc1-c1c2ccc(=[N+](CC)CC)cc-2oc2c1c(=O)oc1cc(N(CC)CC)ccc12					absorption maximum (in CCO): 595 nm; absorption maximum (in ClC(Cl)Cl): 601 nm; absorption maximum (in O): 596 nm
Cc1cccc2[n+]1[B-](c1ccccc1)(c1ccccc1)c1cccc3c4c5c(cccc5c-2c13)[B-](c1ccccc1)(c1ccccc1)[n+]1c(C)cccc1-4			542		
c1ccc(-c2cc(-c3ccc(N4c5ccccc5C(c5ccccc5)(c5ccccc5)c5ccccc54)cc3)nc(-c3ccccc3)n2)cc1					absorption maximum (in Cc1ccccc1): 368.88 nm
CCCCCCn1c2ccccc2c2cc(-c3ccc(-c4cc(-c5ccccn5)nc(-c5ccccn5)c4)cc3)ccc21			296		
COC(=O)c1nc2c(N(C)C)nc(N(C)C)nc2n1Cc1ccccc1	347	347	351		absorption maximum (in C1COCCO1): 344 nm
c1cc2ccc3ccc4cc3c2cc1c1ccc2c(c1)c1cc(ccc1[C@]13OCCO[C@]21OCCO3)c1ccc2c(c1)c1cc4ccc1[C@]13OCCO[C@]21OCCO3					absorption maximum (in Cc1ccccc1): 353 nm
CCn1c2ccccc2c2cc(-c3cc(-c4ccc5c(c4)c4ccccc4n5CC)nc(S(C)(=O)=O)n3)ccc21			384	381	absorption maximum (in CCOC(C)=O): 378 nm; absorption maximum (in CN(C)C=O): 384 nm; absorption maximum (in Cc1ccccc1): 382 nm
CCC(CC)COC1=CC2=C3c4cc(OCC(CC)CC)c(-c5ccccc5)n4[B-](F)(F)[n+]4c3n(c3cc(C(C)(C)C)ccc34)[B-](F)(F)[N+]2=C1c1ccccc1	694		703	702	
